Broadly, the melting point is the temperature of the solid-liquid transition.

The record followed here is patent US6992105B2, “Dipeptide derivatives” (Novartis AG, priority 2001, dated 2006).

Series [1] addresses rabbit antibodies that recognize specifically the carboxyl terminal tryptophan of ET-1. Put plainly: radioimmunoassay: displacement of [125I]ET-1 binding to anti-ET-1 antibodies. Conditions: mean±SEM, n=3–5. The method, then: Diluted samples (200 μL) obtained from the above enzyme assay are incubated at 4° C. overnight with 25 μL each of [^125I]ET-1 (10,000 cpm/tube) and 1:20,000-fold diluted rabbit antibodies that recognize specifically the carboxyl terminal tryptophan of ET-1. Goat anti-rabbit antibodies coupled to magnetic beads (70 μg) are then added to each tube, and the reaction mixture is further incubated for 30 minutes at room temperature. The beads are pelleted using a magnetic rack. The supernatant is decanted, and the radioactivity in the pellet is counted in a gamma counter. Total and nonspecific binding are measured in the absence of non-radioactive ET-1 and anti-ET antibodies, respectively.
In general terms: Loss of bound radioactivity is the signal in a displacement assay; it reports binding, not function.

Ends that are not written are not given here.

Regarding `CCOC(=O)[C@@H](NC(=O)C(C)(C)NC(=O)[C@@H](SC(C)=O)C(C)C)[C@@H](C)OCc1ccccc1` [Example 1(c), N-[2-[(S)-2-acetylthio-3-methylbutanoylamino]-2-methylpropionyl]-O-benzyl-L-threonine ethyl ester], the melting point is 121 to 122 °C. `CCOC(=O)[C@H](COCc1ccccc1)NC(=O)C(C)(C)NC(=O)[C@@H](SC(=O)Cn1cncn1)C(C)C` [Example 1(p), N-[2-[(S)-2-[(1-(1,2,4)-triazolyl)acetylthio]-3-methylbutanoylamino]-2-methylpropionyl]-O-benzyl-L-serine ethyl ester] had a melting point of 106 to 107 °C. `CCOC(=O)[C@H](COCc1ccccc1)NC(=O)C(C)(C)NC(=O)[C@@H](SC(=O)CN1CCN(C)CC1)C(C)C` [Example 1(q), N-[2-[(S)-2-[(4-methylpiperazino)acetylthio]-3-methylbutanoylamino]-2-methylpropionyl]-O-benzyl-L-serine ethyl ester] registered a melting point of 95 to 96 °C. Regarding `CC(C)[C@H](S)C(=O)NC1(C(=O)N[C@@H](COCc2ccccc2)C(=O)O)CCCC1` [Example 6(b), N-[1-[(S)-2-mercapto-3-methylbutanoylamino]-cyclopentanecarbonyl]-O-benzyl-L-serine], the melting point lay in the range of 132 to 136 °C.

`CC(C)[C@H](S)C(=O)NC(C)(C)C(=O)N[C@@H](CSCc1ccccc1)C(=O)O` [Example 6(c), N-[2-[(S)-2-mercapto-3-methylbutanoylamino]-2-methylpropionyl]-S-benzyl-L-cysteine] registered a melting point of 81 to 87 °C. The same measure, in the same setting: the value for `CC(C)[C@H](S)C(=O)NC(C)(C)C(=O)N[C@H](C(=O)O)[C@@H](C)OCc1ccccc1` [Example 6(d), N-[2-[(S)-2-mercapto-3-methylbutanoylamino]-2-methylpropionyl]-O-benzyl-L-threonine] was 61 to 64 °C; that for `CC(C)(NC(=O)[C@@H](S)C(C)(C)C)C(=O)N[C@@H](COCc1ccccc1)C(=O)O` [Example 6(e), N-[2-[(S)-2-mercapto-3,3-dimethylbutanoylamino]-2-methylpropionyl]-O-benzyl-L-serine] was 128 to 130 °C. The molecule `CC(C)[C@H](S)C(=O)NC(C)(C)C(=O)N[C@@H](COCc1ccc(F)cc1)C(=O)O` [Example 6(f), N-[2-[(S)-2-mercapto-3-methylbutanoylamino]-2-methylpropionyl]-O-(4-fluorobenzyl)-L-serine] displayed a melting point of 50 to 54 °C. The molecule `CC(C)[C@H](S)C(=O)NC(C)(C)C(=O)N[C@@H](CCOc1ccc(F)cc1)C(=O)O` [Example 6(g), N-[2-[(S)-2-mercapto-3-methylbutanoylamino]-2-methylpropionyl]-O-(4-fluorophenyl)-L-homoserine] returned a melting point of 127 to 128 °C. `CC(C)[C@H](S)C(=O)NC(C)(C)C(=O)N[C@@H](CCOc1cccc(F)c1)C(=O)O` [Example 6(h), N-[2-[(S)-2-mercapto-3-methylbutanoylamino]-2-methylpropionyl]-O-(3-fluorophenyl)-L-homoserine]: the melting point was in the range of 50 to 56 °C. The molecule `CC(C)(NC(=O)[C@@H](S)C1CCOCC1)C(=O)N[C@@H](COCc1ccccc1)C(=O)O` [Example 6(j), N-[2-[(S)-2-mercapto-2-(4-tetrahydropyranyl)acetylamino]-2-methylpropionyl]-O-benzyl-L-serine] returned a melting point of 184 to 189 °C. With “ET-1: endothelin-1, non-radioactive peptide formed from big ET-1 by ECE; standard in the RIA”, the “IC50 for displacement of [125I]ET-1 binding to the antibodies” value in series [1] was found to be 21 ± 2 fmol. In the case of “big ET-1: human big ET-1, substrate of ECE-1 in the enzyme assay (CSCSSLMDKECVYFCHLDIIWVNTPEHVVPYGLGSPRS; ends and bridges not checked; cysteine pairing not given here; UniProt P05305 53-90, looked up)”, the “IC50 for displacement of [125I]ET-1 binding to the antibodies” value in series [1] is given as 260,000±66,000 fmol.
